In patent US12055536B2, “Device for detection of cellular stress” (Trustees of Boston University, priority 2021, dated 2024):

Legend:
Format in all cases: cell-based, human
[1] = tested on: PEO4 cells; assay: OCR and ECAR by Seahorse analysis; conditions: 13.2 μM cisplatin
Method: (§1) Cell lines were seeded in a Seahorse® XF96 Cell Culture Microplate (Agilent) at density of 6×10^4 (OVCAR5 pair) or 4×10^4 (PEO pair) per well. After incubation at 37° C. overnight for cell attachment, OCR, and extracellular acidification rate (ECAR) were measured through Seahorse® XFe96 Analyzer (Agilent). Measurement time was 30 seconds following 3 minutes mixture and 30 seconds waiting time. First three cycles were used for basal respiration measurement. […] Basal respiration, ATP production and maximal respiration reduction were calculated following the manufacturer's instructions.

[2] = tested on: PEO1 cells; assay: OCR and ECAR by Seahorse analysis; conditions: 13.2 μM cisplatin
Method: as §1

[3] = tested on: OVCAR5 cells; assay: Reactive oxidative species measurement (DCFDA); conditions: cisplatin 1.6 μM or 3.3 μM for 24 hours
Method: (§2) Cellular reactive oxidative species (ROS) was measured using a fluorescent probe, 2′,7′-Dichlorofluorescin diacetate (DCFDA) (Sigma Aldrich). […] DCFDA was added to the medium at final concentration of 10 μM and incubated for 15 min. After washing with PBS for 3 times, cells were immediately imaged under confocal microscope (Zeiss LSM 700 microscope) with 488 nm as the exciting source. Laser power was controlled at low setting to avoid fluorescence extinction. Images at ˜10 field of view were acquired for each sample.

[4] = tested on: OVCAR5-cisR cells; assay: Reactive oxidative species measurement (DCFDA); conditions: cisplatin 1.6 μM or 3.3 μM for 24 hours
Method: as §2

[5] = tested on: cisplatin-resistant OC cell lines; assay: Cisplatin dose response, resistant versus parental cell lines; conditions: all the resistant cell lines versus parental
Excerpt: Ovarian cancer cell lines used in the methods include SKOV3, PEO1, OVCAR5, and COV362, and their cisplatin-resistant counterparts include SKOV3-cisR, PEO4, OVCAR5-cisR, and COV362-cisR. SKOV3 (Cat #: HTB-77), Mia Paca2 (Cat #: CRL-1420), MDA-MB-231 (Cat #: CRM-HTB-26) and A549 (Cat #: CCL-185) cells were purchased from the American Type Culture Collection (ATCC, Manassas, VA). PEO1 (Cat #: 10032308) and PEO4 (Cat #: 10032309) were purchased from Sigma Aldrich. OVCAR5 cells were a generous gift from Dr. Marcus Peter, Northwestern University, and COV362 cells were from Dr. Kenneth Nephew, Indiana University. All cell lines were authenticated and tested to be mycoplasma negative. Mia Paca2 and A549 are in the list of known misidentified cell lines maintained by the International Cell Line Authentication Committee, while their authentication was performed by ATCC through STR profiling. […] Surviving cells were allowed to recover for 3 to 4 weeks before receiving the next treatment. […]
Cell viability was measured by MTS assay (Abcam, #ab197010) or by CellTiter-Glo™ assay (Promega, #G7570). […] Cell viability was measured by incubating with MTS reagent for 4 h and reading absorbance at 490 nm or incubating with CellTier-Glo™ reagent for 10 min and reading luminescence by a plate reader. […]

[6] = tested on: OVCAR5 cells; assay: Glucose uptake assay (2-NBDG); conditions: 3.3 μM cisplatin for 24 hours, 100 μM 2-NBDG for 2 hours
Method: Glucose uptake was measured using a fluorescent glucose analog 2-deoxy-2-[(7-nitro-2,1,3-benzoxadiazol-4-yl) amino]-D-glucose (2-NBDG) (Cayman Chemicals). Cells seeded in glass-bottom dishes were incubated with 100 μM 2-NBDG for 2 h. Fluorescent images were taken by confocal microscope (Zeiss® LSM 700 microscope) with 488 nm laser as excitation source. Images at ˜10 field of view were acquired for each sample.

[7] = tested on: PEO4 cells; assay: Cell viability assay (dose-response); conditions: read-out: IC50 for cisplatin; PE04 cells
Method: (§3) Cell viability was measured by MTS assay (Abcam, #ab197010) or by CellTiter-Glo™ assay (Promega, #G7570). Cells were seeded at 96-well plates at densities of 2000˜5000 cells per well overnight. Treatment was added to the cells at indicated concentrations for 72 h. Cell viability was measured by incubating with MTS reagent for 4 h and reading absorbance at 490 nm or incubating with CellTier-Glo™ reagent for 10 min and reading luminescence by a plate reader. Six replicates were used for each group.
(§4) In addition, isogenic PEO1/PEO4 cell lines derived from the same patient were studied, at the time of a platinum sensitive (PEO1) and platinum resistant-recurrence (PEO4).
(§5) Having shown decreased glucose-derived anabolism and increased fatty acid uptake in cisplatin-resistant ovarian cancer cells, whether this metabolic feature can be used for differentiation of cisplatin-resistant from cisplatin-sensitive cancer cells was explored. […] In Table 2 below, quantitation of glucose-d7 (G-d7), PA-d31, and OA-d34 are shown as area fraction of C-D signal out of total cellular area, in mean values.

[8] = tested on: OVCAR5 cells; assay: Cell viability assay (dose-response); conditions: read-out: IC50 for cisplatin; OVCAR5 cells
Method: as §3, §4, §5

[9] = tested on: OVCAR5-cisR cells; assay: Cell viability assay (dose-response); conditions: read-out: IC50 for cisplatin; OVCAR5-CisR cells
Method: as §3, §4, §5

[10] = tested on: COV362-cisR cells; assay: Cell viability assay (dose-response); conditions: read-out: IC50 for cisplatin; COV362-cisR cells
Method: as §3, §4, §5

[11] = tested on: SKOV3-cisR cells; assay: Cell viability assay (dose-response); conditions: read-out: IC50 for cisplatin; SKOV3-CisR cells
Method: as §3, §4, §5

[12] = tested on: PEO1 cells; assay: Cell viability assay (dose-response); conditions: read-out: IC50 for cisplatin; PE01 cells
Method: as §3, §4, §5

[13] = tested on: COV362 cells; assay: Cell viability assay (dose-response); conditions: read-out: IC50 for cisplatin
Method: as §3, §4, §5

[14] = tested on: MD-MBA231 breast cancer; assay: Cell viability assay (dose-response); conditions: 6.6 μM cisplatin
Method: as §3
(§6) Platinum is widely used across malignancies. […] These findings are broadly applicable to multiple types of cisplatin-resistant cancers. FIG. 8 illustrates the cellular metabolism switch from glycolysis to fatty acid oxidation with decreased glucose uptake, glycolysis and de novo lipogenesis while fatty acid uptake and oxidation are increased.

[15] = tested on: MIA PaCa-2 pancreatic cancer; assay: Cell viability assay (dose-response); conditions: 6.6 μM cisplatin
Method: as §3, §6

[16] = tested on: A549 lung cancer; assay: Cell viability assay (dose-response); conditions: 6.6 μM cisplatin
Method: as §3, §6

[17] = tested on: MIA PaCa-2 cells; assay: Isotope labeling and SRS imaging after cisplatin treatment; conditions: 6.6 μM cisplatin for 24 hours, then 100 μM PA-d31 or OA-d34 for 6 h
Method: (§7) For labeling with glucose-d7, media was replaced with glucose-free DMEM medium (Thermo Fisher Scientific, #11966025)+10% FBS+P/S supplemented with 25 mM glucose-d7 after seeding the cells in 35 mm glass-bottom dishes overnight. For labeling with FA or analogs, including PA-d31, OA-d34, and ODYA, FA or analogs were added to the culture media at final concentration of 100 μM and cells were treated for 6 h. For quantitative SRS imaging, cells on glass-bottom dishes were fixed with 10% neutral buffered formalin for 30 min and washed with PBS for 3 times. Hyperspectral SRS imaging was performed to the cells at Raman spectral region from 2100 to 2300 cm^−1.
as §6

[18] = tested on: MD-MBA231 cells; assay: as above; conditions: 6.6 μM cisplatin for 24 hours, then 100 μM PA-d31 or OA-d34 for 6 h
Method: as §7, §6

[19] = tested on: A549 cells; assay: as above; conditions: 13.2 μM cisplatin for 48 hours, then 100 μM PA-d31 or OA-d34 for 6 h
Method: as §7, §6

N.N.[Cl][Pt][Cl] [cisplatin]
ECAR rate [1]: promptly lowered | OCR ([1]; before and 30 minutes after): slight increase of OCR | ECAR rate [2]: promptly lowered | OCR ([2]; before and 30 minutes after): slight increase of OCR | ROS production (DCF fluorescent signal intensity) [3]: significant increase of ROS production | ROS production (DCF fluorescent signal intensity) [4]: significant increase of ROS production | increase of IC50 compared to parental counterpart cell lines [5]: 2-3 fold | glucose uptake, measured by 2-NBDG [6]: reduced | IC50 [7]: 13.6 µM | IC50 [8]: 8.26 µM | IC50 [9]: 17.4 µM | IC50 [10]: 15.2 µM | IC50 [11]: 17.3 µM | IC50 [12]: 4.72 µM | IC50 [13]: 7.19 µM | cell death [14]: no significant cell death | cell death [15]: no significant cell death | cell death [16]: no significant cell death | uptake of PA-d31 and OA-d34 (C-D signal) [17]: significantly increased | PA-d31 and OA-d34 uptake (C-D signal) [18]: significant increase | PA-d31 and OA-d34 uptake (C-D signal) [19]: significant increase
